The source of these data is patent publication US20100076017A1, “SITAMAQUINE TOSYLATE FOR THE TREATMENT OF LEISHMANIASIS” (priority 2006, published 2010).

Structures can show the parent of a compound that is named as a salt.

This data set can be described thus: hygroscopicity / developability characteristics of the salt form. Type of data set: physicochemical. The conditions noted are these: solid salt form; poor developability characteristics. An excerpt: This means that reproducibility of standard batches of drug is very difficult, and that the drug would have a very short shelf life in those countries where it is particularly needed.

Consider `CCN(CC)CCCCCCNc1cc(OC)cc2c(C)ccnc12` [dihydrochloride salt, N,N-diethyl-N′-(6-methoxy-4-methyl-8-quinolinyl)-1,6-hexane diamine], for which the “relative humidity at which the salt is hygroscopic” value was “about 60 % relative humidity”.
